Among the data in patent US20100249093A1, “Substituted Heteroarylpiperidine Derivatives As Melanocortin-4 Receptor Modulators” (SANTHERA PHARMACEUTICALS (SCHWEIZ) AG, priority 2007, published 2010) are IC50, Emax and EC50 values, retold here.

Assay [1] has as its target T1, human melanocortin-4 receptor (MC-4R) (Homo sapiens, UniProt P32245).
T1 construct: expressed in transfected cells; host or cells: HEK293
Nature of the assay: Membrane binding assay: competition with fluorescence labeled NDP-alpha-MSH, fluorescence polarization. Conditions: HEK293 cell membrane preparations expressing human MC-4R, read-out: hMC-4R binding assay IC50.

Assay [2] has as its target T1, human melanocortin-4 receptor (MC-4R). Nature of the assay: Functional assay: agonistic activity, cAMP production in membrane preparations compared with NDP-alpha-MSH, fluorescence polarization. The format is biochemical. Conditions: for Emax: cAMP produced compared to stimulation with NDP-alpha-MSH, read-out: % activation functional assay; for pEC50: cAMP production, membrane preparations from HEK293 cells expressing human MC-4R, read-out: hMC-4R functional assay EC50.

pEC50, pIC50: −log10 of the molar value.

T1 sequence (P32245 whole entry): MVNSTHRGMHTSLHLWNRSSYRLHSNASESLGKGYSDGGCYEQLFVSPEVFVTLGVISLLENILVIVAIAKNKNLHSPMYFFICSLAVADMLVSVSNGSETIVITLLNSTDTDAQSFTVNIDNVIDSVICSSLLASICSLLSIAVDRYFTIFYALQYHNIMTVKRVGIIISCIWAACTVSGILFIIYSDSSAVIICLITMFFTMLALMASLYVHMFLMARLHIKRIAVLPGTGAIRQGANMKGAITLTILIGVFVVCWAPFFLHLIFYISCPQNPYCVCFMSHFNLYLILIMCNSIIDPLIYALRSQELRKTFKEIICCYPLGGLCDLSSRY

As to `CC[C@H](COc1cccnc1C1CCN(C(=O)[C@@H](Cc2ccc(Cl)cc2Cl)NC(=O)N(CC)CC)CC1)N1CCCC1` [Example 78], in assay [1], the negative logarithm of the IC50 (pIC50) is not below 7.00. Moreover, in assay [2], the Emax turned out to be 0%.

Take `CC[C@H](COc1cccnc1C1CCN(C(=O)[C@@H](Cc2ccc(Cl)cc2Cl)NC(=O)N2CCC[C@@H](O)C2)CC1)N(C)C` [Example 113]: in assay [1], the pIC50 is not below 7.00. Besides, in assay [2], the Emax was -14%.

In the case of `C[C@@H](CCN(C)C)Oc1cccnc1C1CCN(C(=O)[C@@H](Cc2ccc(Cl)cc2Cl)NC(=O)N2CCCC2)CC1` [Example 62], the pIC50 in assay [1] is not below 7.00. The Emax in assay [2] was -10%.

Take `CN1CCOC[C@@H]1COc1cccnc1C1CCN(C(=O)[C@@H](Cc2ccc(Cl)cc2Cl)NC(=O)N2CCCC2)CC1` [Example 55]: the pIC50 in assay [1] is 6.00 to 7.00. Further, the Emax in assay [2] is 2%.

For `CC[C@H](COc1cccnc1C1CCN(C(=O)[C@@H](Cc2ccc(Cl)cc2Cl)NC(=O)N2CC[C@H](F)C2)CC1)N1CCCC1` [Example 90], the pIC50 in assay [1] was not below 7.00. The Emax in assay [2] is 0%.

For the molecule `CC[C@H](COc1cccnc1C1CCN(C(=O)[C@@H](Cc2ccc(Cl)cc2Cl)NC(=O)N2CCC(F)(F)CC2)CC1)N1CCCC1` [Example 83], in assay [1], the pIC50 was not below 7.00. For the same molecule, the Emax in assay [2] amounted to 0%.

With `CN1CCOC[C@H](Oc2cccnc2C2CCN(C(=O)[C@@H](Cc3ccc(Cl)cc3Cl)NC(=O)N3CCCC3)CC2)C1` [Example 48], the pIC50 in assay [1] is not below 7.00. The Emax in assay [2] was 0%.

`CC[C@H](COc1cccnc1C1CCN(C(=O)[C@@H](Cc2ccc(Cl)cc2Cl)NC(=O)N2CCCC(C)(O)C2)CC1)N(C)C` (stereo partly shown) [Example 125]: in assay [1], the pIC50 is not below 7.00. In assay [2], the Emax was -8%.

For the molecule `O=C(N[C@H](Cc1ccc(Cl)cc1Cl)C(=O)N1CCC(c2ncccc2O[C@H]2CN3CCC2CC3)CC1)N1CCCC1` [Example 26], the pIC50 in assay [1] is 6.00 to 7.00. Besides, the Emax in assay [2] amounted to 0%.

With `CC[C@@H](COc1cccnc1C1CCN(C(=O)[C@@H](Cc2ccc(Cl)cc2Cl)NC(=O)N2CCCC2)CC1)N1CCCC1` [Example 31], the pIC50 in assay [1] is not below 7.00. The Emax in assay [2] was -3%.

On to `CC[C@H](COc1cccnc1C1CCN(C(=O)[C@@H](Cc2ccc(Cl)cc2Cl)NC(=O)N2CCC2)CC1)N1CCCC1` [Example 76], for which the pIC50 in assay [1] was not below 7.00. Also, in assay [2], the Emax was 0%.

Regarding `CC[C@H](COc1cccnc1C1CCN(C(=O)[C@@H](Cc2ccc(Cl)cc2Cl)NC(=O)N2CC[C@@H](OC)C2)CC1)N(C)C` [Example 108], the pIC50 in assay [1] was not below 7.00. Further, in assay [2], the Emax turned out to be 0%.

With `CN1CCC[C@H]1COc1cccnc1C1CCN(C(=O)[C@@H](Cc2ccc(Cl)cc2Cl)NC(=O)N2CCCC2)CC1` [Example 44], the pIC50 in assay [1] is 6.00 to 7.00. In addition, in assay [2], the Emax is -4%.

Turning to `CN1CCO[C@H](COc2cccnc2C2CCN(C(=O)[C@@H](Cc3ccc(Cl)cc3Cl)NC(=O)N3CCCC3)CC2)C1` [Example 49], the pIC50 in assay [1] is 6.00 to 7.00. For the same molecule, in assay [2], the Emax was -3%.

With `CC[C@H](COc1nc(C)ncc1C1CCN(C(=O)[C@@H](Cc2ccc(Cl)cc2Cl)NC(=O)N2CCCC2)CC1)N(C)C` [Example 64], in assay [1], the pIC50 was not below 7.00. The Emax in assay [2] amounted to 13%.

In the case of `CC[C@H](COc1cccnc1C1CCN(C(=O)[C@@H](Cc2ccc(Cl)cc2Cl)NC(=O)N2CCOC[C@@H]2C)CC1)N1CCCC1` [Example 92], the pIC50 in assay [1] is not below 7.00. Besides, in assay [2], the Emax is 0%.

As to `CC[C@H](COc1cccnc1C1CCN(C(=O)[C@@H](Cc2ccc(Cl)cc2Cl)NC(=O)N(CCOC)CCOC)CC1)N1CCCC1` [Example 85], the pIC50 in assay [1] is not below 7.00. Further, in assay [2], the Emax was determined as 0%.

In the case of `CC[C@@H](CN1CCCC1)Oc1cnccc1C1CCN(C(=O)[C@@H](Cc2ccc(Cl)cc2Cl)NC(=O)N2CCCC2)CC1` [Example 11], the pIC50 in assay [1] is not below 7.00. In addition, in assay [2], the Emax came out at 0%.

Consider `CN1CCN(Cc2cc(Cl)cnc2C2CCN(C(=O)[C@@H](Cc3ccc(Cl)cc3Cl)NC(=O)N3CCCC3)CC2)CC1` [Example 39], for which the pIC50 in assay [1] is not below 7.00. Moreover, in assay [2], the Emax is -13%.

Consider `CN(C)C(C)(C)COc1cccnc1C1CCN(C(=O)[C@@H](Cc2ccc(Cl)cc2Cl)NC(=O)N2CCCC2)CC1` [Example 20], for which the pIC50 in assay [1] is not below 7.00. In assay [2], the Emax amounted to 0%.

With `CC[C@H](CN(C)C)Oc1cccnc1C1CCN(C(=O)[C@@H](Cc2ccc(Cl)cc2Cl)NC(=O)N2CCCC2)CC1` [Example 34], the pIC50 in assay [1] is less than 6.00. The Emax in assay [2] was -3%.

In the case of `COCCN(C)C(=O)N[C@H](Cc1ccc(Cl)cc1Cl)C(=O)N1CCC(c2ncccc2O[C@H]2CCCN(C)C2)CC1` [Example 142], in assay [1], the pIC50 is not below 7.00. For the same molecule, in assay [2], the Emax was -32% and the pEC50 is not below 7.00.

`CC[C@@H](CN(C)C)Oc1cccnc1C1CCN(C(=O)[C@@H](Cc2ccc(Cl)cc2Cl)NC(=O)N2CCCC2)CC1` [Example 32]: the negative-log IC50 (pIC50) in assay [1] is not below 7.00. Moreover, in assay [2], the Emax turned out to be 36% and the pEC50 is less than 6.00.

Take `CC[C@H](COc1cccnc1C1CCN(C(=O)[C@@H](Cc2ccc(Cl)cc2Cl)NC(=O)N2CCC[C@@H]2C(C)(C)O)CC1)N(C)C` [Example 121]: in assay [1], the pIC50 is not below 7.00. For the same molecule, the Emax in assay [2] is -6%.

In the case of `CC[C@H](COc1cccnc1C1CCN(C(=O)[C@@H](Cc2ccc(Cl)cc2Cl)NC(=O)N2CCCO2)CC1)N1CCCC1` [Example 94], the pIC50 in assay [1] is not below 7.00. Further, the Emax in assay [2] was determined as 0%.

`CC[C@H](COc1cccnc1C1CCN(C(=O)[C@@H](Cc2ccc(Cl)cc2Cl)NC(=O)N2CC(OC(C)=O)C2)CC1)N1CCCC1` [Example 100]: the pIC50 in assay [1] is not below 7.00. For the same molecule, in assay [2], the Emax was -7%.

For `CN1CCC[C@H](Oc2cccnc2C2CCN(C(=O)[C@@H](Cc3ccc(Cl)cc3Cl)NC(=O)N3CCCC3)CC2)C1` [Example 21], the pIC50 in assay [1] was not below 7.00. In addition, in assay [2], the Emax came to 0%.

As for `COC[C@H](CN(C)C)Oc1cccnc1C1CCN(C(=O)[C@@H](Cc2ccc(Cl)cc2Cl)NC(=O)N2CCCC2)CC1` [Example 46], in assay [1], the negative-log IC50 (pIC50) is less than 6.00. The Emax in assay [2] was -13%.

As for `CC[C@H](COc1cccnc1C1CCN(C(=O)[C@@H](Cc2ccc(Cl)cc2Cl)NC(=O)N2CC(OC)C2)CC1)N1CCCC1` [Example 98], the pIC50 in assay [1] is not below 7.00. In assay [2], the Emax was 13%.

Turning to `CN1CCN(Cc2cc(F)cnc2C2CCN(C(=O)[C@@H](Cc3ccc(Cl)cc3Cl)NC(=O)N3CCCC3)CC2)CC1` [Example 59], the pIC50 in assay [1] was not below 7.00. For the same molecule, the Emax in assay [2] is -1%.

Regarding `CC[C@H](COc1cccnc1C1CCN(C(=O)[C@@H](Cc2ccc(Cl)cc2Cl)NC(=O)N2CC[C@H](CO)C2)CC1)N(C)C` [Example 114], in assay [1], the pIC50 was not below 7.00. In assay [2], the Emax was -3%.

For the molecule `CN1CCOC[C@@H](Oc2cccnc2C2CCN(C(=O)[C@@H](Cc3ccc(Cl)cc3Cl)NC(=O)N3CCCC3)CC2)C1` [Example 52], the pIC50 in assay [1] is 6.00 to 7.00. The Emax in assay [2] was 4%.

For `CC[C@@H](CN1CCCC1)Oc1nccnc1C1CCN(C(=O)[C@@H](Cc2ccc(Cl)cc2Cl)NC(=O)N2CCCC2)CC1` [Example 63], the pIC50 in assay [1] is not below 7.00. For the same molecule, in assay [2], the Emax came out at 0%.

As for `CC[C@@H](CN(C)C)Oc1cccnc1C1CCN(C(=O)[C@@H](Cc2ccc(Cl)cc2Cl)NC(=O)N2CC[C@@H](O)C2)CC1` [Example 139], the pIC50 in assay [1] was not below 7.00. In assay [2], the Emax is -10%.

As to `CC[C@H](COc1cccnc1C1CCN(C(=O)[C@@H](Cc2ccc(Cl)cc2Cl)NC(=O)N(C)CC)CC1)N1CCCC1` [Example 79], the pIC50 in assay [1] was not below 7.00. Further, the Emax in assay [2] came to 0%.

As for `CC[C@H](COc1cccnc1C1CCN(C(=O)[C@@H](Cc2ccc(Cl)cc2Cl)NC(=O)N2CC[C@@H](O)C2)CC1)N(C)C` [Example 116], the pIC50 in assay [1] is not below 7.00. The Emax in assay [2] was -1%.

Turning to `Cc1ccc(C2CCN(C(=O)[C@@H](Cc3ccc(Cl)cc3Cl)NC(=O)N3CCCC3)CC2)c(NCCN2CCCC2)n1` [Example 1], the pIC50 in assay [1] is not below 7.00. In assay [2], the Emax was 0%.

`CN(C)C[C@@H](Oc1cccnc1C1CCN(C(=O)[C@@H](Cc2ccc(Cl)cc2Cl)NC(=O)N2CCCC2)CC1)C(F)(F)F` [Example 58]: the negative-log IC50 (pIC50) in assay [1] is 6.00 to 7.00. The Emax in assay [2] was 4%.

On to `CC[C@H](COc1cccnc1C1CCN(C(=O)[C@@H](Cc2ccc(Cl)cc2Cl)NC(=O)N2CC[C@H](OC)C2)CC1)N(C)C` [Example 109], for which the pIC50 in assay [1] is not below 7.00. Moreover, the Emax in assay [2] was -11%.

Regarding `CN1CC[C@H](Oc2cccnc2C2CCN(C(=O)[C@@H](Cc3ccc(Cl)cc3Cl)NC(=O)N3CCCC3)CC2)C1` [Example 42], the pIC50 in assay [1] is 6.00 to 7.00. Further, in assay [2], the Emax was -1%.

Take `CN1CCN(C)CC(Oc2cccnc2C2CCN(C(=O)[C@@H](Cc3ccc(Cl)cc3Cl)NC(=O)N3CCCC3)CC2)C1` [Example 56]: in assay [1], the pIC50 is not below 7.00. In addition, the Emax in assay [2] is -5%.

Turning to `Cc1ccc(C2CCN(C(=O)[C@@H](Cc3ccc(Cl)cc3Cl)NC(=O)N3CCCC3)CC2)c(N(C)CCN2CCCC2)n1` [Example 2], the negative-log IC50 (pIC50) in assay [1] is not below 7.00. The Emax in assay [2] came to 0%.

As to `CC[C@H](COc1cccnc1C1CCN(C(=O)[C@@H](Cc2ccc(Cl)cc2Cl)NC(=O)N2CC[C@@H](OC(C)=O)C2)CC1)N(C)C` [Example 120], in assay [1], the pIC50 was not below 7.00. Further, the Emax in assay [2] is 5%.

Take `CN1CCC[C@H](Oc2cccnc2C2CCN(C(=O)[C@@H](Cc3ccc(Cl)cc3Cl)NC(=O)N3CC[C@@H](O)C3)CC2)C1` [Example 143]: the pIC50 in assay [1] was not below 7.00. Besides, in assay [2], the Emax was -1%.

In the case of `CC[C@@H](CN1CCCC1)Oc1ncc(C)cc1C1CCN(C(=O)[C@@H](Cc2ccc(Cl)cc2Cl)NC(=O)N2CCCC2)CC1` [Example 9], the pIC50 in assay [1] was not below 7.00. The Emax in assay [2] was 0%.

On to `CC[C@H](COc1cccnc1C1CCN(C(=O)[C@@H](Cc2ccc(Cl)cc2Cl)NC(=O)N2CCC[C@H]2C(C)(C)O)CC1)N(C)C` [Example 126], for which the pIC50 in assay [1] is not below 7.00. In assay [2], the Emax was -8%.
